Reference: the NIST ThermoML archive (doi:10.1021/acs.jced.7b00221)

Assay: xn = mol fraction of the nth substance listed
Conditions: 100 kPa, Liquid; for viscosity: Cone and plate viscometry; for mass density: Vibrating tube method

CCCCCCn1cc[n+](C)c1.O=[N+]([O-])c1cn[n-]c1 [1-hexyl-3-methylimidazolium 4-nitropyrazolide] + CCCCCCCCCCCCCC[P+](CCCCCC)(CCCCCC)CCCCCC.O=S(=O)([N-]S(=O)(=O)C(F)(F)F)C(F)(F)F
Conditions | mass density, x1 = 0.25 [kg/m3] | mass density, x1 = 0.5 [kg/m3] | mass density, x1 = 0.749 [kg/m3] | viscosity, x1 = 0.101 [mPa·s] | viscosity, x1 = 0.299 [mPa·s] | viscosity, x1 = 0.5 [mPa·s] | viscosity, x1 = 0.7 [mPa·s] | viscosity, x1 = 0.9 [mPa·s]
278.15 K | – | – | – | 1201 | 1360 | 1582 | 2039 | 2649
283.15 K | 1081.8 | 1090.7 | 1105.6 | 816 | 914 | 1045 | 1290 | 1540
288.15 K | 1078.2 | 1087.1 | 1102 | 570 | 629 | 707 | 840 | 935
293.15 K | 1074.6 | 1083.6 | 1098.5 | 410 | 445 | 492 | 566 | 597
295.15 K | 1073.1 | 1082.2 | 1097.2 | – | – | – | – | –
298.15 K | 1071 | 1080.1 | 1095.2 | 302 | 323 | 352 | 395 | 400
303.15 K | 1067.4 | 1076.6 | 1091.7 | 228 | 241 | 259 | 285 | 278
308.15 K | 1063.8 | 1073.1 | 1088.3 | 175 | 184 | 195 | 211 | 200
313.15 K | 1060.3 | 1069.6 | 1084.9 | 138 | 142 | 150 | 160 | 149
318.15 K | 1056.8 | 1066.2 | 1081.6 | 110 | 113 | 118 | 124 | 113
323.15 K | 1053.4 | 1062.8 | 1078.3 | 90 | 91 | 94 | 99 | 89
328.15 K | 1049.9 | 1059.4 | 1075 | – | – | – | – | –
333.15 K | 1046.4 | 1056 | 1071.7 | – | – | – | – | –
338.15 K | 1042.9 | 1052.6 | 1068.3 | – | – | – | – | –
343.15 K | 1039.4 | 1049.2 | 1065 | – | – | – | – | –
348.15 K | 1035.9 | 1045.8 | 1061.7 | – | – | – | – | –
353.15 K | 1032.5 | 1042.4 | 1058.5 | – | – | – | – | –

CCCCCCCC[P+](CC)(CC)CC.O=[N+]([O-])c1cn[n-]c1 [triethyloctylphosphonium 4-nitropyrazolide] + CCCCCC[n+]1ccn(C)c1.O=S(=O)([N-]S(=O)(=O)C(F)(F)F)C(F)(F)F
Conditions | mass density [kg/m3] | viscosity [mPa·s]
278.15 K, x1 = 0.126 | – | 267
278.15 K, x1 = 0.25 | – | 358
278.15 K, x1 = 0.499 | – | 680
278.15 K, x1 = 0.75 | – | 1046
278.15 K, x1 = 0.898 | – | 1242
283.15 K, x1 = 0.126 | 1340 | 191
283.15 K, x1 = 0.25 | 1296.5 | 251
283.15 K, x1 = 0.499 | 1209.6 | 456
283.15 K, x1 = 0.75 | 1124.3 | 682
283.15 K, x1 = 0.898 | 1074.4 | 804
283.15 K, x1 = 1 | 1040.7 | –
288.15 K, x1 = 0.126 | 1335.5 | 140
288.15 K, x1 = 0.25 | 1292.3 | 180
288.15 K, x1 = 0.499 | 1205.8 | 314
288.15 K, x1 = 0.75 | 1120.9 | 457
288.15 K, x1 = 0.898 | 1071.2 | 535
288.15 K, x1 = 1 | 1037.7 | –
293.15 K, x1 = 0.126 | 1331.1 | 106
293.15 K, x1 = 0.25 | 1288.2 | 133
293.15 K, x1 = 0.499 | 1201.9 | 223
293.15 K, x1 = 0.75 | 1117.5 | 317
293.15 K, x1 = 0.898 | 1068 | 369
293.15 K, x1 = 1 | 1034.6 | –
295.15 K, x1 = 0.126 | 1329.4 | –
295.15 K, x1 = 0.25 | 1286.5 | –
295.15 K, x1 = 0.499 | 1200.4 | –
295.15 K, x1 = 0.75 | 1116.1 | –
295.15 K, x1 = 0.898 | 1066.8 | –
295.15 K, x1 = 1 | 1033.4 | –
298.15 K, x1 = 0.126 | 1326.7 | 82
298.15 K, x1 = 0.25 | 1284.1 | 102
298.15 K, x1 = 0.499 | 1198.2 | 164
298.15 K, x1 = 0.75 | 1114.1 | 227
298.15 K, x1 = 0.898 | 1064.8 | 263
298.15 K, x1 = 1 | 1031.5 | –
303.15 K, x1 = 0.126 | 1322.4 | 66
303.15 K, x1 = 0.25 | 1280 | 79
303.15 K, x1 = 0.499 | 1194.5 | 124
303.15 K, x1 = 0.75 | 1110.7 | 168
303.15 K, x1 = 0.898 | 1061.7 | 192
303.15 K, x1 = 1 | 1028.5 | –
308.15 K, x1 = 0.126 | 1318.1 | 53
308.15 K, x1 = 0.25 | 1275.9 | 63
308.15 K, x1 = 0.499 | 1190.9 | 96
308.15 K, x1 = 0.75 | 1107.5 | 127
308.15 K, x1 = 0.898 | 1058.6 | 145
308.15 K, x1 = 1 | 1025.5 | –
313.15 K, x1 = 0.126 | 1313.8 | –
313.15 K, x1 = 0.25 | 1271.8 | 52
313.15 K, x1 = 0.499 | 1187.2 | 73
313.15 K, x1 = 0.75 | 1104.2 | 99
313.15 K, x1 = 0.898 | 1055.5 | 110
313.15 K, x1 = 1 | 1022.6 | –
318.15 K, x1 = 0.126 | 1309.6 | –
318.15 K, x1 = 0.25 | 1267.7 | –
318.15 K, x1 = 0.499 | 1183.5 | 59
318.15 K, x1 = 0.75 | 1100.9 | 77
318.15 K, x1 = 0.898 | 1052.5 | 83
318.15 K, x1 = 1 | 1019.6 | –
323.15 K, x1 = 0.126 | 1305.4 | –
323.15 K, x1 = 0.25 | 1263.7 | –
323.15 K, x1 = 0.499 | 1179.9 | –
323.15 K, x1 = 0.75 | 1097.6 | 62
323.15 K, x1 = 0.898 | 1049.4 | 67
323.15 K, x1 = 1 | 1016.7 | –
328.15 K, x1 = 0.126 | 1301.2 | –
328.15 K, x1 = 0.25 | 1259.6 | –
328.15 K, x1 = 0.499 | 1176.2 | –
328.15 K, x1 = 0.75 | 1094.3 | –
328.15 K, x1 = 0.898 | 1046.3 | –
328.15 K, x1 = 1 | 1013.8 | –
333.15 K, x1 = 0.126 | 1297 | –
333.15 K, x1 = 0.25 | 1255.5 | –
333.15 K, x1 = 0.499 | 1172.6 | –
333.15 K, x1 = 0.75 | 1091.1 | –
333.15 K, x1 = 0.898 | 1043.3 | –
333.15 K, x1 = 1 | 1010.8 | –
338.15 K, x1 = 0.126 | 1292.8 | –
338.15 K, x1 = 0.25 | 1251.5 | –
338.15 K, x1 = 0.499 | 1169 | –
338.15 K, x1 = 0.75 | 1087.8 | –
338.15 K, x1 = 0.898 | 1040.2 | –
338.15 K, x1 = 1 | 1007.9 | –
343.15 K, x1 = 0.126 | 1288.7 | –
343.15 K, x1 = 0.25 | 1247.5 | –
343.15 K, x1 = 0.499 | 1165.3 | –
343.15 K, x1 = 0.75 | 1084.6 | –
343.15 K, x1 = 0.898 | 1037.2 | –
343.15 K, x1 = 1 | 1005 | –
348.15 K, x1 = 0.126 | 1284.5 | –
348.15 K, x1 = 0.25 | 1243.5 | –
348.15 K, x1 = 0.499 | 1161.7 | –
348.15 K, x1 = 0.75 | 1081.3 | –
348.15 K, x1 = 0.898 | 1034.1 | –
348.15 K, x1 = 1 | 1002.1 | –
353.15 K, x1 = 0.126 | 1280.3 | –
353.15 K, x1 = 0.25 | 1239.5 | –
353.15 K, x1 = 0.499 | 1158.1 | –
353.15 K, x1 = 0.75 | 1078.1 | –
353.15 K, x1 = 0.898 | 1031.1 | –
353.15 K, x1 = 1 | 999.2 | –
